Legend:
[1] = target: T1, LTB4 receptor (Homo sapiens, UniProt Q15722); test: LTB4 Receptor Binding Assay (human neutrophils); details: LTB4 Antagonism, 0.6 nano M (3H) LTB4, 0° C., 45 minutes
T1 construct: Neutrophils were purified from venous blood of normal human donors; endogenous in cells; host or cells: human blood neutrophils
Procedure: Preparation of Human Neutrophils
Neutrophils were purified from venous blood of normal human donors using standard techniques of dextran sedimentation, centrifugation on Histopaque sterile solution (Sigma) and hypotonic lysis of erythrocytes (Boyum, A., Isolation of Leukocytes from Human Blood: Further Observations. Scand. J. Lab. Clin. Invest. 21 (Suppl. 97): 31, 1968). The purity of isolated neutrophils was ≥95%.
LTB4 Receptor Binding Assay
Neutrophils (4-6×10^6) in 1 ml Hanks' balanced salt solution containing 10 mM HEPES buffer (HBSS), pH 7.4 and […] nordihydroguaiaretic acid were incubated with 0.6 nano M (^3 H) LTB4 in the presence or absence of test compounds. The incubation was carried out at 0° C. for 45 minutes and terminated by adding 5 ml of ice-cold HBSS followed by rapid filtration of incubation mixture under vacuum through GF/C glass fiber filters. The filters were further washed with 10 ml HBSS and radioactivity was determined. Specific binding was defined as the difference between total binding and nonspecific binding which was not displaced by 10^-7 M unlabeled LTB4. All data refer to specific binding.

[2] = target: T2, guinea pig lung receptors (LTD4 receptor) (Cavia porcellus, UniProt Q2NNR5); test: Leukotriene (LTD4) Receptor Binding Assay; details: LTD4 Antagonism; guinea pig lung membrane
T2 construct: guinea pig lung receptors, isolated from guinea pig lung membrane; from tissue; host or cells: guinea pig lung membrane
T2 sequence (Q2NNR5 1-340): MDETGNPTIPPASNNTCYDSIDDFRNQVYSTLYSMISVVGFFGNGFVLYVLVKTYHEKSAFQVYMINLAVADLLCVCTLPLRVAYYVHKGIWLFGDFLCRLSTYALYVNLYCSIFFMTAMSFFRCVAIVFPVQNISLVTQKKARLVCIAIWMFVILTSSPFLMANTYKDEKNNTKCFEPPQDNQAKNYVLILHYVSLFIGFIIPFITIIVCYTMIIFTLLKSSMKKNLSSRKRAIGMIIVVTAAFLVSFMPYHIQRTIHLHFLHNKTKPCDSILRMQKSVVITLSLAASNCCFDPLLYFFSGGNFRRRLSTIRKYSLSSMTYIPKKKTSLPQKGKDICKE
Procedure: Leukotriene Receptor Binding Assay (12c01)
The in vitro LTD4 receptor binding assay is carried out as follows:
Specific binding of titrated LTD4 to a fixed number of guinea pig lung receptors, isolated from guinea pig lung membrane, is measured in the presence and absence of test compound. The initial screening dose (1×10^-5 M is considered active if the specific binding of LTD4 is reduced by 45% or more. Active compounds are tested in a dose-response manner to determine IC50 values.

[3] = target: T3, guinea pig ileum (LTD4-induced contraction) (Cavia porcellus, UniProt Q2NNR5); test: LTD4 Antagonism in Guinea Pig Ileum; assay type: cell-based; details: pA2, Schild analysis
T3 construct: Fresh segments of guinea pig ileum; from tissue; host or cells: guinea pig ileum segments
T3 sequence (Q2NNR5 1-340): T2 sequence (Q2NNR5 1-340)
Procedure: LTD4 Antagonism in Guinea Pig Ileum
Fresh segments of guinea pig ileum were suspended in 2 ml. tissue baths containing oxygenated modified Tyrodes solution. After an equilibration period, an agonist dose-response curve was generated by exposing each tissue to 4 different LTD4 doses and measuring the ensuing contractile heights. The ileum segments were washed and rested between exposures to agonist. Following this, the tissues were incubated with a single concentration of test compound and the agonist dose-response procedure was repeated. The dose ratio is a measure of the antagonist's ability to shift the agonist dose-response curve to the right. It is derived as the concentration of agonist necessary to reach a given response level in the presence (A') versus the absence (A) of antagonist. For example, if the test concentration of compound had no effect on the agonist-induced response (A'=A) the dose-ratio would approximate 1. […] One dose-ratio value is determined for each strip of ileum used to test antagonist. […] Schild analysis examines the linearity of the function described by the dose-ratios written as log [(A'/A)-1] versus antagonist concentration. If the linearity is […] and the slope approximates 1, inhibition is considered to be competitive. The pA2 is the negative log of the antagonist concentration required to produce a dose-ratio of 2. This value is considered to be a measure of the affinity of the competitive antagonist.

[4] = system: LTD4 action on respiratory smooth muscle; test: In Vivo Bronchoconstriction Assay (LTD4-induced); parameters: species or system guinea pig; details: LTD4 Antagonism, guinea pigs, 2000 units LTD4 IV
Procedure: The compounds are tested in vivo as follows. Adult male fasted Hartly guinea pigs weighing 300-350 g are pretreated with pyrilamine and indomethacin to block the bronchoconstricture effects of endogenous histamine and the synthesis of thromboxane A2 respectively. Compounds of the invention are administered IV or IG at approximate times prior to the IV administration of 2000 units of LTD4. Intratracheal pressure is monitored prior to and subsequent to LTD4 in animals anesthetized with pentobarbital and attached to a rodent respirator. Compounds which antagonize the direct component of LTD4 action on respiratory smooth muscle inhibit intratracheal insufflation pressure increases (P< or =0.05) caused by LTD4. FPL 55712 is used as a control.

T1 sequence (Q15722 whole entry): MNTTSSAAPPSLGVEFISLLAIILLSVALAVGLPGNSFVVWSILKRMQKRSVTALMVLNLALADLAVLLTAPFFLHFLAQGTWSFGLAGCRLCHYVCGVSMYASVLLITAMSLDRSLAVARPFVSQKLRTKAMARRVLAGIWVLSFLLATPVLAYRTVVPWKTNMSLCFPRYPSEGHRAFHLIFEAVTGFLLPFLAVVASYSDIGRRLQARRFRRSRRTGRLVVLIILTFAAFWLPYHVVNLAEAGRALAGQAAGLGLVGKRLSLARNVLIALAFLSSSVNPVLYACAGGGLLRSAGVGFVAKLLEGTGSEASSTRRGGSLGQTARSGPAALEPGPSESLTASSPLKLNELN

Row | Compound | IC50 [1] [nM] | IC50 [2] [nM] | Kb [3] [nM] | In Vivo Bronchoconstriction Assay (% Inhibition at 5 mpk. IV) [4] [%]
1 | CCCc1c(OCCCSCC2CSC(C)(CCCC(=O)O)S2)ccc(C(C)=O)c1OC (stereo not drawn) [Example 81, 4-[[[3-(4-Acetyl-3-methoxy-2-propylphenoxy)propyl]thio]methyl]-2-methyl-1,3-dithiolane-2-butanoic acid] | 60 |  |  | 
2 | CCCc1c(OCCCSCC2CSC(C)(CCC(=O)O)S2)ccc(C(C)=O)c1O (stereo not drawn) [Example 50, 4-[[[3-(4-Acetyl-3-hydroxy-2-propylphenoxy)propyl]thio]methyl]-2-methyl-1,3-dithiolane-2-propanoic acid] |  | 9470 | 14.5 | 91.2
3 | CCCc1c(OCCCSCC2COC(C)(CCC(=O)O)S2)ccc(C(C)=O)c1O (stereo not drawn) [Example 38, 4-[[[3-(4-Acetyl-3-hydroxy-2-propylphenoxy)propyl]thio]methyl]-2-methyl-1,3-oxathiolane-2-propanoic acid] |  | 9370 | 14.5 | 87.2
4 | CCCc1c(OCCCSCC2COC(C)(CCCC(=O)O)S2)ccc(C(C)=O)c1O (stereo not drawn) [Example 84] |  | 7100 |  | 85.1
5 | CCCc1c(OCCCSCC2COC(CCC(=O)O)(c3ccccc3)S2)ccc(C(C)=O)c1O (stereo not drawn) [Example 70, 4-[[[3-(4-Acetyl-3-hydroxy-2-propylphenoxyl]propyl]thio]methyl]-2-phenyl-1,3-oxathiolane-2-propanoic acid] |  | 6240 | 26.9 | 59.2
6 | CCCc1c(OCCCSCC2CSC(C)(CCCC(=O)O)S2)ccc(C(C)=O)c1O (stereo not drawn) [Example 61, 4-[[[3-(4-Acetyl-3-hydroxy-2-propylphenoxy)propyl]thio]methyl]-2-methyl-1,3-dithiolane-2-butanoic acid] |  | 5020 | 9.55 | 95.6
7 | CCCc1c(OCCCSCC2CSC(CCC(=O)O)(CCC(=O)O)S2)ccc(C(C)=O)c1O (stereo not drawn) [Example 35, 4-[[[3-(4-Acetyl-3-hydroxy-2-propylphenoxy)propyl]thio]methyl]-1,3-dithiolane-2,2-dipropanoic acid] |  | 591 | 8.91 | 93
8 | CCCc1c(OCCCSCC2COC(CCC(=O)O)(CCC(=O)O)S2)ccc(C(C)=O)c1O (stereo not drawn) [Example 3, 4-[[[3-(4-Acetyl-3-hydroxy-2-propylphenoxy)propyl]thio]methyl]-1,3-oxathiolane-2,2-dipropanoic acid] |  | 3560 | 21.4 | 96.9
